{"source": "patent US11707519B2", "about": "“Phosphorylated heptose compounds: process for their preparation and use” (priority 2017, dated 2023)", "key": {"[1]": {"test_system": "NF-κB-driven luciferase reporter in HEK 293T cells", "assay": "NF-κB-driven luciferase reporter assay in HEK 293T cells", "type": "cell-based", "conditions": "20 μg/mL synthetic compound, 20 minutes in permeabilization buffer (5 μg/mL digitonin), then 3.5 hours in complete medium; FIG. 35", "experimental": "FIG. 35: Effects of compounds/products according to the invention on HEK 293T cells encoding an NF-κB-driven luciferase reporter gene. HEK 293T cells were transfected with a plasmid encoding an NF-κB-driven luciferase reporter. After 24 hours, cells were stimulated for 20 minutes in permeabilization buffer (5 μg/mL digitonin) in the presence of culture supernatant from N. meningitidis mutants with (gmhB) or without (hldA) HBP or 20 μg/mL of synthetic compounds according to the invention. Treatment was removed; cells were washed and incubated for 3.5 hours in complete medium. A luciferase assay was then performed. The results are mean of technical triplicates.\nHEK 293T cells were transfected with a plasmid encoding an NF-κB-driven luciferase reporter. After 24 hours, cells were stimulated for 20 minutes in permeabilization buffer (5 μg/mL digitonin) in the presence of culture supernatant from N. meningitidis mutants with (gmhB) or without (hldA) HBP or 20 μg/mL of synthetic compound according to the invention. Treatment was removed; cells were washed and incubated for 3.5 hours in complete medium. A luciferase assay was then performed. The results obtained are illustrated in FIG. 35. They are mean of technical triplicates."}, "HCT 116 cells": {"test_system": "HCT 116 cells", "assay": "IL-8 ELISA after stimulation of human colonic epithelial cells (HCT 116, WT or TIFA KO)", "type": "cell-based", "conditions": "10 μg/mL synthetic compound, 20 minutes with digitonin, then 6 hours, FIG. 36", "experimental": "(§1) FIG. 36: Stimulation of human colonic epithelial cells by compounds/products according to the invention. Human colonic epithelial cells (HCT 116) that were either wild type (WT) or deficient in TIFA protein expression (knockout, KO) were stimulated for 20 minutes in permeabilization buffer (5 μg/mL digitonin) in the presence of culture supernatant from N. meningitidis mutants with (gmhB) or without (hldA) HBP or 10 μg/mL of synthetic compound according to the invention. Treatment was removed, cells were washed, and cells were incubated for 6 hours in complete media and IL-8 levels in culture supernatants were measured by ELISA. The results are mean of technical duplicates.\nas §1, with “Human” for “FIG. 36: Stimulation of human colonic epithelial cells by compounds/products according to the invention. Human”, “results obtained are illustrated in FIG. 36. They” for “results”"}, "THP-1 cells": {"test_system": "THP-1 cells", "assay": "IL-8 ELISA after stimulation of human macrophage cells (THP-1)", "type": "cell-based", "conditions": "THP-1, 30 μM or 150 μM synthetic compound, 20 minutes with digitonin, then 6 hours; FIG. 37", "experimental": "(§2) FIG. 37: Stimulation of human macrophages by compounds/products according to the invention. Human macrophage cells (THP-1) were stimulated for 20 minutes in permeabilization buffer (5 μg/mL digitonin) in the presence of water, 39.8 μM of the Nod1 agonist C12-iE-DAP (which stimulates in a TIFA-independent manner), or either 30 μM or 150 μM of synthetic compound according to the invention. Treatment was removed, cells were washed, and cells were incubated for 6 hours in complete media before the IL-8 levels in culture supernatants were measured by ELISA. The results are the mean and standard error of the mean of three technical replicates. Nod1 agonist: C12-iE-DAP (20 μg/mL, 39.8 μM); HBP: D-glycero-1-D-manno-heptose-1β,7-bi-phosphate.\nas §2, with “Stimulation” for “FIG. 37: Stimulation”, “ELISA (FIG. 37).” for “ELISA.”, “Nod1 agonist: C12-iE-DAP (20 μg/mL, 39.8 μM); HBP: D-glycero-1-D-manno-heptose-1β,7-bi-phosphate.” left out"}, "[2]": {"test_system": "TbpB originating from group B N. meningitidis", "assay": "Adjuvant test: mice immunized with TbpB, serum IgG titers to TbpB by ELISA", "type": "in vivo, C57BL/6NCrl mice", "conditions": "25 μg TbpB with adjuvant intramuscularly, doses D0, D21, D28; serum D14, D28, D35; compared with TbpB alone and TbpB+alum; FIG. 38A", "experimental": "(§3) FIG. 38: 6-week-old male C57BL/6NCrl mice were immunized with TbpB originating from group B N. meningitidis, purified from recombinant E. coli. All groups were immunized with 25 μg of TbpB with or without adjuvant, in a total volume of 30 μL intramuscularly: TbpB alone, TbpB+alum, and TbpB+HBP (200 μg). Three doses were given: D0, D21, and D28. Serum was collected at D0 prior to immunization, D14, D28, and D35 and then examined by ELISA for IgG titers to TbpB (FIG. 38A). Mice were challenged on D36 with 5×10^7 of N. meningitidis strain expressing the homologous TbpB. Mice were injected with human transferrin (200 μL of 8 mg/mL) as this is critical for the development of sepsis in this model. Mice were monitored at the 1 h, 12 h, 18 h, 24 h, and 36 h time points. At 1 h, blood was collected to enumerate CFUs (FIG. 38B). Clinical scores were collected at 12 h post challenge (FIG. 38C).\n(§4) HBP can act as an adjuvant. 6-week-old male C57BL/6NCrl mice were immunized with TbpB originating from group B N. meningitidis, purified from recombinant E. coli. All groups were immunized with 25 μg of TbpB with or without adjuvant, in a total volume of 30 μL intramuscularly TbpB, TbpB+alum, and TbpB+HBP (equimolar to 200 μg). Three doses were given: D0, D21, D28. […] Mice were monitored at the 1 h, 12 h, 18 h, 24 h, and 36 h time points. […]"}, "N. meningitidis": {"test_system": "N. meningitidis", "assay": "Challenge of immunized mice with N. meningitidis strain expressing matching TbpB (sepsis model)", "type": "in vivo, C57BL/6NCrl mice", "conditions": "TbpB with adjuvant as opposed to TbpB alone", "experimental": "as §3, §4"}}}
{"compound": "O=P(O)(O)OC[C@@H](O)[C@H]1O[C@@H](OP(=O)(O)O)[C@@H](O)[C@@H](O)[C@@H]1O", "note": "[HBP, D-glycero-D-manno-heptopyranose 1β,7-bisphosphate]", "values": [{"measurement": "NF-κB stimulation (luciferase assay)", "setting": "[1]", "result": "can immunomodulate via NF-κB stimulation in vitro"}, {"measurement": "cytokine expression (IL-8 levels in culture supernatants)", "setting": "HCT 116 cells", "result": "can drive cytokine expression in vitro"}, {"measurement": "cytokine expression (IL-8 levels in culture supernatants)", "setting": "THP-1 cells", "result": "can drive cytokine expression in vitro"}, {"measurement": "IgG titers to TbpB", "setting": "[2]", "result": "significantly higher than administration of TbpB alone and greater than observed with alum as the adjuvant"}, {"measurement": "clinical scores", "setting": "N. meningitidis; challenge D36, 12 h post challenge, FIG. 38C", "result": "lower"}, {"measurement": "bacterial burden (CFU in blood)", "setting": "N. meningitidis; challenge D36 with 5×10^7 N. meningitidis, blood at 1 h, FIG. 38B", "result": "reduced"}]}
